Source: US8802715B2, “Crystal forms of saxagliptin and processes for preparing same” (AstraZeneca AB, priority 2007, dated 2014)

Tests used:
[1] = Solid form stability of crystals stored at ambient conditions; type: physicochemical; settings: product likely form H2-1
Method: 100 mg Saxagliptin mono HCl salt form H2-1 (dihydrate) (prepared employing a procedure similar to that described in Example 5) were added to 2 ml of dry ethanol (dried over molecular sieves). The resulting mixture was heated at 45° C. until all form H^2-1 compound was dissolved, at which time heating was discontinued. Crystallization was initiated when the temperature was cooled to 25° C.±2° C. (close to room temperature). Crystals of saxagliptin HCl salt Pattern P-5 were recovered, which crystals were maintained as a slurry in a sealed container at 25° C.±2° C.

[2] = Weight gain with relative humidity (hygroscopicity); type: physicochemical

| conversion of crystal form on storage [1] | hygroscopicity ([2]; from weight gain in the range 25-75% RH at 25° C.) | weight gain ([2]; range 25-75% RH at 25° C.) | Compound |
| --- | --- | --- | --- |
| underwent significant conversion | – | – | Cl.N#C[C@@H]1C[C@@H]2C[C@@H]2N1C(=O)[C@@H](N)C12CC3CC(CC(O)(C3)C1)C2 [saxagliptin HCl salt Pattern P-5] |
| – | non-hygroscopic | 0.1% | N#C[C@@H]1C[C@@H]2C[C@@H]2N1C(=O)[C@@H](N)C12CC3CC(CC(O)(C3)C1)C2.O [free base monohydrate (form H−1)] |
